Measured values taken from patent US4568689A, “Pharmaceutical preparation for the treatment of hypertensive disease and myocardial infarction” (priority 1983, dated 1986).

Key:
[1] = test system: arterial pressure of spontaneously hypertensive rats; assay: effect of the oral form on arterial pressure, spontaneously hypertensive rats; type: in vivo
Method: Also studied was the efficiency of the oral form of the preparation according to the present invention. […] The efficiency was studied within the range of doses from 50 to 100 mg/kg.

[2] = test system: arterial pressure of rats with spontaneous hypertension; assay: hypotensive effect, intraperitoneal, spontaneously hypertensive rats; type: in vivo
Method: The study of the hypotensive effect was carried out in experiments on spontaneously hypertensive male rats of the Akamoto-Aoki line aged 20-25 weeks. The prior art preparation-nifedipine was used for the purpose of comparison. The measurement of the arterial pressure was effected on the tail vein of the rats by the indirect method. The animals were divided into groups (10 in each) and trained for two weeks with the view to ensure their adaptation to the unit for the measurement of the arterial pressure. The level of the arterial pressure prior to administration of the test preparations was measured three times: two days, one day and directly prior to administration of the test preparations. The preparation was administered in the form of a 2.5% aqueous solution, nifedipine--in the form of a 2.5% suspension in Twin-80 intraperitoneally. […]

white mongrel mice = assay: in vivo; settings: mouse, ip
Method: (§1) Acute toxicity measurements were carried out in experiments on white mongrel mice upon intraperitoneal administration.

in vivo = settings: mouse, ip
Method: as §1

[3] = side effects or contraindications on administration
[4] = test system: hemodynamic effects of acetylcholine, neoepinephrine, noradrenaline, histamine and angiotensin; assay: influence on hemodynamic effects of acetylcholine, noradrenaline, neoepinephrine, angiotensin and histamine in narcotized cats; type: in vivo
Method: (§2) The effect of the pharmaceutical preparation according to the present invention on the arterial pressure and vegetative responses was studied in acute experiments on cats with a mass of 2.8-4.0 kg narcotized with α-glucochloralose (90 mg/kg) and urethane (100 mg/kg, intraperitoneally). The breathing, arterial pressure in the common carotid artery and electrocardiogram of the second standard lead were recorded.
(§3) The influence of the preparation according to the present invention on hemodynamic effects of acetylcholine (0.1 μg/kg) neoepinephrine (0.2 μg/kg), noradrenaline (1 μg/kg), histamine (1.5 μg/kg) and angiotensin (0.1 μg/kg) was also studied. The preparation of this invention was intravenously administered in the form of a 2.5% solution in doses of 0.5 to 10 mg/kg. The peripheral part of the vagus nerve was irritated by supromaximum pulses with the frequency of 30 Hz and duration of 0.1 ms.

[5] = test system: arterial pressure and vegetative responses in narcotized animals; assay: arterial pressure, breathing and electrocardiogram in narcotized cats, intravenous; type: in vivo
Method: as §2, §3

[6] = test system: neoepinephrine model of infarction (focal necrosis) of myocardium in rats; assay: survival of rats with the neoepinephrine model of infarction; type: in vivo, rats of the Wistar line; settings: 25 mg/kg subcutaneously, 7 days
Method: The study of the effect produced by the preparation according to the present invention on survival of animals with a neoepinephrine model of infarction was effected in comparison with the prior art preparations--obzidan and finoptin.
The formation of a neoepinephrine model of infarction (focal necrosis) of myocardium in rats was effected by way of an every-day subcutaneous administration of a 0.1% solution of neoepinephrine in the dose of 3 mg/kg for 7 days to rats of the Wistar line with a mass of 160-200 g. The test preparations were subcutaneously administered to the rats in the form of a 1.25% aqueous solution in the dose of 25 mg/kg 0.5 hour after injection of neoepinephrine also for 7 days.

[7] = test system: arterial pressure of spontaneously hypertensive rats; assay: effect of the oral form on arterial pressure, spontaneously hypertensive rats; type: in vivo; remark: listed apart in the source
[8] = 25 mg/kg intraperitoneally, 30 minutes
[9] = 25 mg/kg intraperitoneally, 1 hour
[10] = 25 mg/kg intraperitoneally, 2 hours
[11] = 25 mg/kg intraperitoneally, 4 hours
[12] = 50 mg/kg intraperitoneal, 30 minutes
[13] = 50 mg/kg intraperitoneally, 30 minutes
[14] = 50 mg/kg intraperitoneally, 1 hour
[15] = 50 mg/kg intraperitoneally, 2 hours
[16] = 50 mg/kg intraperitoneally, 4 hours
[17] = 50 mg/kg intraperitoneally, 24 hours
[18] = 24 hours after a single-time administration

In the case of `C[N+]1(C)CC(CC(=O)[O-])C(=O)N1` (stereo not drawn) [Preparation of this invention, (1,1-dimethyl-3-oxopyrazolin-1-io-4-yl)acetate], the “Variation of arterial pressure, systolic” value ([1]; 50 mg/kg per os, 4 hours) is reported as -3 % of the initial, the “Variation of arterial pressure, diastolic” value (“Variation … diastolic” below) ([1]; 75 mg/kg per os, 1 hour) is reported as -17 % of the initial and the “Variation of arterial pressure, systolic” value ([1]; 75 mg/kg per os, 1 hour) is reported as -10 % of the initial. The “Variation … diastolic” value ([1]; 75 mg/kg per os, 2 hours) was -18 % of the initial, the “superiority in duration of action over nifedipine” value ([1]; 75 mg/kg per os, vs nifedipine) was “at least 3 times” and the “Variation … diastolic” value ([1]; 100 mg/kg per os, 1 hour) was -8 % of the initial. The “Variation of arterial pressure, systolic” value ([1]; 100 mg/kg per os, 1 hour) was -7 % of the initial, the “Variation … diastolic” value ([1]; 100 mg/kg per os, 24 hours) was -3 % of the initial and the “Variation … diastolic” value [2, 8] was -1 % of the initial. The “Variation of arterial pressure, systolic” value [2, 8] was -3 % of the initial, the “Variation … diastolic” value [2, 9] was -7 % of the initial and the “Variation of arterial pressure, systolic” value [2, 9] was -5 % of the initial. The “Variation … diastolic” value [2, 10] was -19 % of the initial, the “Variation of arterial pressure, systolic” value [2, 10] was -3 % of the initial and the “Variation … diastolic” value [2, 11] was -18 % of the initial. The “Variation of arterial pressure, systolic” value [2, 11] was -7 % of the initial, the “reduction of diastolic pressure” value [2, 12] was 23.5% and the “reduction of systolic pressure” value [2, 12] was 17.6%. For the same molecule, the “Variation … diastolic” value [2, 13] was -23 % of the initial, the “Variation of arterial pressure, systolic” value [2, 13] was -17 % of the initial and the “Variation … diastolic” value [2, 14] was -28 % of the initial. For the same molecule, the “Variation of arterial pressure, systolic” value [2, 14] was -12 % of the initial, the “Variation … diastolic” value [2, 15] was -26 % of the initial and the “Variation of arterial pressure, systolic” value [2, 15] was -18 % of the initial. The “Variation … diastolic” value [2, 16] was -41 % of the initial, the “Variation of arterial pressure, systolic” value [2, 16] was -21 % of the initial and the “Variation … diastolic” value [2, 17] was -19 % of the initial. The “Variation of arterial pressure, systolic” value [2, 17] was -17 % of the initial, the “reduction of diastolic pressure” value [2, 18] was 28.5% and the “reduction of systolic pressure” value [2, 18] was 18.8%. For the same molecule, the “difference between systolic and diastolic pressures” value ([2]; see Table 1) was “increases the difference between systolic and diastolic pressures”, the LD50 (white mongrel mice) was 2,239 (1,279-3,917) mg/kg and the LD50 (in vivo) was 2240 mg/kg. The “side effects or contraindications” value [3] was “No side effects or contraindications”, the “Hemodynamic effect, Neoepinephrine” value ([4]; 10 mg/kg intravenously, neoepinephrine 0.2 μg/kg) was -35% and the “Hemodynamic effect, Noradrenaline” value ([4]; 0.5-3.0 mg/kg intravenously, noradrenaline 1 μg/kg) was -10%. The “blocking of α- and β-receptors and the cholinergic system” value ([4]; higher doses (10 mg/kg)) was “substantially blocks both α- and β-receptors, as well as the cholinergic system”, the “direct influence on effects of angiotensin and histamine” value ([4]; higher doses (10 mg/kg)) was “does not provide any direct influence on effects of angiotensin and histamine” and the “Variation of arterial pressure” value ([5]; 5 mg/kg intravenously) was -16%. For the same molecule, the peripheral resistance ([5]; in vivo) was “reduction of peripheral resistance”, the “effect on breathing and electrocardiogram” value ([5]; intravenously, 0.5 to 10 mg/kg) was “does not substantially affect the breathing and electrocardiogram of the animals” and the Percentage of survival ([6]; after 19 days) was 92%. For the same molecule, the “Number of survived animals after 19 days” value ([6]; groups initially 12 animals) was 11, the “Variation … diastolic” value ([7]; 50 mg/kg per os, 30 minutes) was -10 % of the initial and the “Variation of arterial pressure, systolic” value ([7]; 50 mg/kg per os, 30 minutes) was -3 % of the initial. For the same molecule, the “Variation … diastolic” value ([7]; 50 mg/kg per os, 1 hour) was “+2 % of the initial”, the “Variation … diastolic” value ([7]; 50 mg/kg per os, 2 hours) was -8 % of the initial and the “Variation of arterial pressure, systolic” value ([7]; 50 mg/kg per os, 2 hours) was -5 % of the initial. For the same molecule, the “Variation … diastolic” value ([7]; 50 mg/kg per os, 4 hours) was -3 % of the initial, the “Variation … diastolic” value ([7]; 50 mg/kg per os, 24 hours) was -2 % of the initial and the “Variation of arterial pressure, systolic” value ([7]; 50 mg/kg per os, 24 hours) was -7 % of the initial. The “Variation … diastolic” value ([7]; 75 mg/kg per os, 30 minutes) was -12 % of the initial, the “Variation of arterial pressure, systolic” value ([7]; 75 mg/kg per os, 30 minutes) was -16 % of the initial and the “Variation of arterial pressure, systolic” value ([7]; 75 mg/kg per os, 2 hours) was -18 % of the initial. For the same molecule, the “Variation … diastolic” value ([7]; 75 mg/kg per os, 4 hours) was -11 % of the initial, the “Variation of arterial pressure, systolic” value ([7]; 75 mg/kg per os, 4 hours) was -8 % of the initial and the “Variation … diastolic” value ([7]; 75 mg/kg per os, 24 hours) was -22 % of the initial. For the same molecule, the “Variation of arterial pressure, systolic” value ([7]; 75 mg/kg per os, 24 hours) was -20 % of the initial, the “stable reduction of the arterial pressure” value ([7]; 75 mg/kg per os, 24 hours after administration) was “about 20%” and the “Variation … diastolic” value ([7]; 100 mg/kg per os, 30 minutes) was -11 % of the initial. For the same molecule, the “Variation of arterial pressure, systolic” value ([7]; 100 mg/kg per os, 30 minutes) was -13 % of the initial, the “Variation … diastolic” value ([7]; 100 mg/kg per os, 2 hours) was -7 % of the initial and the “Variation of arterial pressure, systolic” value ([7]; 100 mg/kg per os, 2 hours) was -8 % of the initial. The “Variation … diastolic” value ([7]; 100 mg/kg per os, 4 hours) was -13 % of the initial, the “Variation of arterial pressure, systolic” value ([7]; 100 mg/kg per os, 4 hours) was -13 % of the initial and the “Variation of arterial pressure, systolic” value ([7]; 100 mg/kg per os, 24 hours) was -12 % of the initial.
